Laboratory results published in US20260266805A1, “METHOD AND COMPOSITIONS FOR ANALYZING TOXICITY IN ORGANISMS” (priority 2023, published 2026).
Where “and” joins values, the source holds several entries; their conditions need not be identical. Equal entries are not always repeated. Where two headings read alike, the source gives them in different places.

What was measured:
C. elegans N2 wild type = experiment: vivoChip-24x C. elegans DART assay (72 hr liquid culture from L1, 4D imaging of D1 adults); assay type: in vivo
Experimental: (§1) Strains and maintenance: The study used the N2 wild type (The Caenorhabditis Natural Diversity Resource, CaeNDR) for all experiments except for the initial vivoChip-2× pilot study, where the study used N2 wild types from the Caenorhabditis Genetics Center (CGC). C. elegans were maintained using the standard methods on nematode growth media (NGM) plates seeded with HB101 Escherichia coli bacteria and maintained at 20° C.. Frozen stocks of strains were also maintained at −80° C. and thawed each year to generate a new set of Dauer plates. Sealed Dauer plates for each strain were stored at 16° C. and used to start a fresh maintenance culture every 3 months by chunking to avoid genetic drift. Worms were cultured for >5 generations before using them for assays in a temperature and humidity-controlled environment.
Food preparation: HB101 was streaked on a Luria-Bertani (LB) agar plate with streptomycin (antibiotic) and incubated overnight at 37° C. to generate single colonies. One colony was picked and used to inoculate an overnight 5 mL starter culture in LB broth and antibiotic. 200 μl of this starter culture was added to 200 mL LB broth/streptomycin in a 1000 mL baffled flask and incubated for 18 h with 180 rotations per min (rpm) shaking to reach the end of the log growth phase. OD600 was measured using an Implen DiluPhotometer, and the culture was stored at 4° C. Immediately before worm culture, a sufficient volume of the bacterial culture was centrifuged to generate the required volume of OD600^=3.0 food suspension. The LB supernatant was removed and the pellet was resuspended in S media. This density was optimal for growing 80-100 larval 1 (L1) to the day 1 (D1) adult stage in a 500 μl culture volume with food remaining after 72 hrs, but not so much residual food particles as to interfere with imaging or chip operation.
Chemicals: Methylmercury (II) hydroxide (CH3Hg, Alfa Aesar, CAS #1184-57-2) and 5-Fluoro-2′-deoxyuridinc (FUdR, TCI Chemical, CAS #50-91-9) were dissolved in ultrapure water as master stocks at 200× highest treatment concentration. Propiconazole (Sigma Aldrich, CAS #60207-90-1) was dissolved in dimethylsulfoxide (Sigma Aldrich, CAS #67-68-5) as master stocks at 500× highest treatment concentration. The master stocks were transferred into 0.2 ml tubes as single-use aliquots and kept at −80° C. until needed. The 1 μM dose of CH3Hg was prepared by diluting the stock in ultrapure water prior to the treatment. For the dose-response assays, propiconazole was diluted immediately prior to treatment by serial dilution in DMSO to 500× working dilutions as needed, so that the final DMSO concentration in each well would be 0.2%. DMSO was also added to both the solvent control wells and the CH3Hg control wells to 0.2%.
(§2) Worm synchronization and large-scale culture: To prepare large numbers of synchronized L1 stage larvae, P0 larval 4 (L4) worms were transferred to NGM plates and grown for 96 hrs till the F1 generation reached maturity, removing the P0 adults after 48 hrs. D1 animals were treated with an alkaline sodium hypochlorite solution with periods of slow and high-speed shaking on a speed-controllable vortex to fragment their bodies and release the embryos before the bleaching solution was neutralized with 5 washes of M9. The eggs were allowed to develop and hatch in the M9 buffer in a rotating glass conical tube for 24 hrs. Hatched synchronized L1s were filtered through a 20 μm cell filter to remove unhatched eggs and debris, counted the number of total larvae, and adjusted the volume to make a final suspension of L1 larvae at a density of ~100 L1s/20 μl.
(§3) Chemical treatment in liquid culture: The age-synchronized L1 suspension (~100 larvae in 20 μl volumes) was placed in a standard 24-well plate with 480 μl HB101 (OD600^=3.0) suspension in S media. 2.5 μl of chemicals dissolved in H2O, or 1 μL of the chemicals in DMSO were added to the designated wells, keeping solvent concentration constant across all wells. […]

Fathead minnow = conditions: cited from earlier work
Daphnia = conditions: cited from earlier work
C. elegans = experiment: Nile red (NR) staining of stored body lipids in vivoChip; assay type: in vivo; conditions: co-cultured for the entire 72 hours, versus control worms
Experimental: Liquid culture of C. elegans: Worms are synchronized by bleaching a population of gravid C. elegans using the hypochlorite solution. The embryos are then incubated in a glass tube and rotated for 24 hours at 20° C. About 80 larval 1 (L1) worms are plated into a standard 24-well plastic plate with 500 μl S media and HB101 bacteria. The worms are exposed to chemicals or ingredients during the growth in the liquid media for 3 days in a 20° C. incubator.
Imaging of C. elegans using vivoChip: The C. elegans are fed with bacteria and treated with test chemicals for 72 hours in a 20° C. incubator. […] The vivoChip technology allows capture of bright field or fluorescence images from the worms immobilized inside the microfluidic channels.
Nile red (NR) staining to study body lipids: To stain lipid molecules in the C. elegans body, 30 ng/ml and 50 ng/mL were added to the liquid culture at the L1 stage (a total of 72-hour incubation) and L4 stage animals (a total of 24-hour incubation) and maintained the plate at 20° C. […] Bright-field and fluorescence (red filter set) were acquired to capture worm development and the stored lipids in the C. elegans populations.
Analysis of NR signal: The individual channels were analyzed to identify the NR signal, mainly within the worm intestinal […] (FIG. 23A). […]

C. elegans pharynx = experiment: Pharynx size analysis from bright field images in vivoChip; assay type: in vivo; conditions: D1 adults, 1.6 μM, DMSO (0.25%), treated from L1 stage
Description: FIGS. 25A-25C depict identifying C. elegans organs and organ structures using high-resolution, bright field, and fluorescence images using the vivoChip platform. […] The schematic represents different organs that could be identified and analyzed using image processing or automated machine learning algorithms.
Identifying internal organs and organ structures of C. elegans using bright field and fluorescence images: Overall morphology of changes in different tissues within a C. elegans body. Due to the dynamic nature of the tissue architectures, it is expected to change over the animal's age. This approach was used to track tissue architecture during early adult stage C. elegans quantitatively (FIG. 25A). As an example, the study analyzed the pharynx within the C. elegans immobilized inside the vivoChip. […] This well-studied organ has been used to screen several therapeutic drugs and to characterize the amount of food intake readouts. […]
C. elegans pharynxes present in the best focal plane from individual channels were manually segmented. […] Once the C. elegans body is detected, specific organs can be characterized using the fluorescence reporter (transgenic strains) or fluorescent dyes (feeding or soaking with dye). For example, C. elegans were fed with FITC-dextran overnight to visualize the green signal using fluorescence imaging of device-immobilized animals. […]

CL2166 strain = conditions: CL2166, 5.66 μl of 3% H2O2 in 500 μl culture at 68 hours, 4 hours exposure
Experimental: Image analysis of the C. elegans body and fluorescence signal: The images from the vivoChip platform were cropped into individual channels. The study determined the best focal plane for each worm image (bright-field images) from the stack of images. Individual channel image was analyzed using machine-learning algorithms (developed by vivoVerse) to predict the mask for the worm body inside the individual microfluidic channel. Since several organs in the worm body have a 3D architecture, the study created a maximum-intensity projection of multiple z-slice fluorescence images. Using the maximum projection image, the study then calculated the integrated fluorescence signal within the predicted body mask. The study also estimated the background signal from the pixels outside the body mask and within two successive channel regions. The background signal was used to estimate the corrected total C. elegans fluorescence (CTCF)=integrated density−(area of selected C. elegans body×fluorescence of background readings)
The study treated a transgenic strain expressing GFP when exposed to oxidative stress to quantify the stress level in individual worms using high-resolution imaging to quantify sub-lethal changes in the stress levels.
5.66 μl of 3% H2O2 was added to the 500 μl S media culture with worms at 68 hours to induce oxidative stress. […]

wild-type N2 worms = experiment: Pilot DART imaging of N2 worms treated with FUdR in a small-scale vivoChip; assay type: in vivo, C. elegans; conditions: for EC50: Caenorhabditis elegans, N2 L1 larvae, 0-10,000 μM, 72 hrs at 20° C., D1 adults
Experimental: as §1, §2
as §3, with “wells. Vehicle control wells received the same volume of each solvent (H2O or 0.2% DMSO).” for “wells.”
For the initial testing of this hypothesis, this study explored the response of wild-type N2 worms when treated various doses of 5-Fluoro-2′-deoxyuridine (FUdR), a drug commonly used to prevent the development of live offspring in C. elegans experimental cultures. […] The length of all worms in each concentration were manually measured by taking the distance from the head to the tail of each animal. The study counted the total number of embryos and the number of embryos visibly moving within the eggshells in each worm through the time stacks (FIGS. 1C-1E).

For `CCCC1COC(Cn2cncn2)(c2ccc(Cl)cc2Cl)O1` (stereo not drawn) [propiconazole], the “concentration at which reduced growth rate left worms too small to be immobilized in the microfluidic channels” value (C. elegans N2 wild type; N2, 72 hrs) was at least 333 UM, the “body length EC10” value (C. elegans N2 wild type; N2, L1 to D1, 72 hrs, Hill fit) was 117.5 µM and the “body volume EC10” value (C. elegans N2 wild type; N2, L1 to D1, 72 hrs, Hill fit) was 74.9 µM. For the same molecule, the “developed (moving+folded) embryos EC10” value (C. elegans N2 wild type; N2, L1 to D1, 72 hrs, Hill fit) was 10.9 µM, the “moving embryos EC10” value (C. elegans N2 wild type; N2, L1 to D1, 72 hrs, Hill fit) was 10 µM and the “total embryos EC10” value (C. elegans N2 wild type; N2, L1 to D1, 72 hrs, Hill fit) was 48.8 µM. The “concentration from which fecundity was affected” value (Fathead minnow) was ≥ 0.5 mg/L and ≥ 1.46 μM and the “concentration from which embryonic development was affected” value (Daphnia) was ≥ 0.5 mg/L and ≥ 1.46 μM.

For `NCCc1c[nH]c2ccc(O)cc12` [5-HT, serotonin], the “amount of lipids in the body visualized using NR staining” value (C. elegans) was “significantly lower amount of lipids”.

For `CCOP(=S)(OCC)Oc1nc(Cl)c(Cl)cc1Cl` [chlorpyrifos], the “total pixels of pharynx compared to vehicle control (DMSO)” value (C. elegans pharynx) was “reduced”.

In the case of `OO` [H2O2, hydrogen peroxide], the “increase of GFP intensity” value (CL2166 strain) is reported as ~ 60%.

For `O=c1[nH]c(=O)n([C@H]2C[C@H](O)[C@@H](CO)O2)cc1F` [FUdR, 5-Fluoro-2′-deoxyuridine], the EC50 (wild-type N2 worms; read-out: moving embryo parameter, EC50) was 26 µM, the EC50 (wild-type N2 worms; read-out: reduction in body length, EC50) was 316 µM and the EC50 (wild-type N2 worms; read-out: reduction in the number of total embryos, EC50) was 98 µM. The “concentration causing growth arrest at stages earlier than could be immobilized in the chip” value (wild-type N2 worms; N2 C. elegans, 0-10000 μM) was at least 500 µM.
